# Measured values reported in US6566047B1, “Method for identifying neurite-growth promoting agents” (The Regents of the University of Colorado, priority 1998, dated 2003).
# Entries after “also recorded” stand apart in the source; their conditions may differ.
# Key:
# [1] = system: growth cone PLA2; assay: PLA2 assay in growth cone particles (GCPs); type: biochemical, rat
# Method: Growth Cone Particle (GCP) Isolation. GCPs were prepared as described by Pfenninger et al. (1983) and modified by Lohse et al., Dev. Brain Res., 96:38-96 (1996). Briefly, 18-day fetal brains were homogenized in approximately 8 volumes of 0.32 M sucrose containing 1 mM MgCl2, 2 mM TES buffer, pH 7.3, and 3 μM aprotinin. A low-speed supernatant (1,660 g×15 min) was loaded onto a discontinuous sucrose density gradient With steps of 0.83 M and 2.66 M sucrose containing MgCl2 and TES. The gradients were spun to equilibrium at 242,000 g for 40 min in a vertical rotor (Vti50, Beckman). The GCP fraction at the 0.32/0.83 M sucrose interface was collected and used for the experiments described below.
# (§1) All assays were run in triplicate.
# [2] = system: cPLA2; assay: PLA2 activity (14C-AA release) in MAT-Lu cells; type: biochemical, rat; conditions: 5 mM dithiothreitol
# Method: MAT-Lu cells were plated at a density of 0.5×10^6 cells per flask (T-75) and grown as detailed above to approximately 25% confluency. On the day before the experiments, the serum level in the medium was dropped to 1%. Cells were fed with fresh 1% serum-medium 4 hrs prior to harvest. For harvesting, cells were rinsed with Ca^++,Mg^++-free HBSS, covered with 2 ml cold Ca^++-free modified Krebs buffer (220 mM sucrose, 50 mM NaCl, 5 mM KCl, 22 mM HEPES, 10 mM glucose. 1.2 mM NaH2PO4 and 1.2 mM MgCl2, pH 7.3), and placed on ice. Cells were scraped off, pelleted for 5 min at 200 rpm and re-suspended in a minimal volume of Krebs buffer. Aliquots were used to determine protein concentration (Biorad Assay) and phopholipase activity. To measure PLA2 activity 10-12 μg of cell protein was incubated with or without thrombin for 10 min on ice, ^14C-AA-labeled phospholipid substrate (7 μM. 40-60 mCi/mmol) was added, and the mixture was transferred to 37° for 20 min. The reaction was stopped by adding cold cliloroform/methanol (1:2 v/v). Lipid extraction followed by thin-layer chromatography (Negre-Aminou et al., J Neurochem 67:2599-2608 (1996)) isolated the reaction product (identified by co-migration with AA standard), which was then scraped off the plates and analyzed in a scintillation spectrometer (Beckman). In some experiments, especially those involving ^14C-AA-phosphatidylinositol as substrate, the diacylglycerol-containing band (identified by co-migration of standard) also was scraped and counted in order to measure phospholipase C (PLC) activity.
# [3] = system: high motility (MAT-Lu, MAT-LyLu and AT-3) Dunning carcinoma cells; assay: Pseudopod length assay, high-motility Dunning carcinoma cells; type: cell-based, rat
# Method: (§2) Pseudopod Morphometry. To study the effects of various agents on pseudopods on a short-term basis, we measured pseudopod lengths. Cells plated in 35-mm diameter dishes at low density (1×10^4 per dish) were incubated overnight, tie medium was changed, and the experiments were run four hours later. First, cultures were shifted to serum-free medium, which was replaced one hour later by serum-free medium with or without the various agents (thrombin, AA or HETEs). Care was taken to avoid heat and light inactivation of the eicosanoids. Culture dishes were placed on a Zeiss inverted microscope equipped with a heated stage and viewed with a 16×phase contrast objective lens. Randomly selected fields of the cultures, containing generally about 20 cells each, were recorded, digitized and stored in the computer at the onset of the experiment and at different times thereafter.
# In some cases, individual cells were monitored over different periods of time immediately after introduction of the reagent, either by mixing it into the medium or by applying it locally to one end of the cell. […] Cell morphology was recorded, and the captured images were analyzed with a Power Macintosh computer using NIH Image. Cell process length was measured from the center of the nucleus to the end of the process. […]
# [4] = biological target: 12(S)-HETE receptor; conditions: Liu et al. 1995; Herbertsson and Hammarstrom 1992; cited from earlier work
# [5] = system: growth cones in cultures of rat cerebral cortex; assay: Growth cone collapse assay in cortical neuron culture; type: cell-based; conditions: thrombin 100 nM; TRAP (100 mM); 12(S)-HETE 10^−7 M
# Method: Neuron Culture. Cerebral cortices were dissected from embryonic day 18 Sprague-Dawley rats, cut into explants of less than 1 mm^3 and cultured on either poly-D-lysine-coated coverglass (Assistent) or poly-D-lvsine-coated tissue culture plastic. After 24 hours in B27 neurobasal medium (NB) supplemented with 10% fetal bovine serum, cultures were switched to serum-free B27/NB. The cultures were incubated at 37° C. in 5% CO2 in air. Sprouting neurons were observed readily on day 1. On day 2 or 3, long neurites were present, and the cultures were used for collapse experiments.
# Actin Staining. After experimentation, cultures were fixed by slow infusion of fixative (4% paraformaldehyde in 0.1 M phosphate buffer, pH 7.4) into the culture dishes over 10 min (Pfenninger and Maylié-Pfenninger, J. Cell Biol. 89:53-546 (1981)). Thereafter, the fixative was removed by rinsing three times with phosphate-buffered saline (PBS) containing 1 mM glycine. Cultures were then blocked with PBS/1% bovine serum albumin (BSA) and permeabilized by incubation in 0.02% Triton X-100 for 5 min. After three washes in PBS/BSA, cultures were incubated with Texas-Red-conjugated phalloidin for 30 min. Unbound phalloidin was washed away by two PBS rinses, after which the coverglasses were mounted in Slow-Fade Light on microscope slides. Images were recorded on 35 mm film using a Zeiss Axiophot fluorescence microscope equipped with epiillumination.
# Growth Cone Collapse Assay. Prior to repellent factor treatment, some of the day 2-3 explant cultures were pre-incubated (at 37° C.) with inhibitor or vehicle control (dimethylsulfoxide or ethanol) for 30-60 min. Cultures were then challenged with a repellent factor or vehicle control for 1-30 min. In some experiments, live cultures were photographed with a Zeiss IM 35 inverted photo microscope equipped with a stage heater, while in others cultures were fixed (as above) after 7 minutes of repellent factor treatment. Growth cone collapse was assessed quantitatively in aldehyde-fixed cultures by grading the degree of collapse in a large number of randomly selected growth cones.
# [6] = system: AT-2 cells; assay: Pseudopod length / retraction assay, AT-2 cells; type: cell-based, rat; conditions: for pseudopod retraction response of AT-2 cells: AA even at 10^−1M
# Method: as §2
# (§3) In some cases, individual cells were monitored over different periods of time immediately after introduction of the reagent, either by mixing it into the medium or by applying it locally to one end of the cell. Local application was done with a “puffer” system that expels microliter amounts of the desired solution from a micromanipulator-controlled micropipette tip. Cell morphology was recorded, and the captured images were analyzed with a Power Macintosh computer using NIH Image. Cell process length was measured from the center of the nucleus to the end of the process. Characterization of the frequencies of pseudopod lengths, at a fixed time for each of a sequence of concentrations of reagent, utilized a gamma regression model with an inverse quadratic linear predictor (McCullagh and Nelder, Generalized Linear Models 2d ed., pp. 291-292 (Chapman & Hall, 1989), separately fit to each concentration data set. Although no formal goodness-of-fit tests were carried out, in virtually every case there was good visual representation of the pattern of response (see FIG. 14). Most data, however, are shown as whisker-box plots, where the center point represents the 50%, the ends of the box the […] and 75%, and the “whiskers” the 5% and 95% quantiles (e.g., FIG. 11). Statistical comparisons of pseudopod lengths for different treatments were done by standard non-parametric techniques (Wilcoxon Rank Sum or Kruskal-Wallis Tests), as judged appropriate. Polynomial curve fittings were done by standard least-squares techniques. Statistical analyses and graphing were done with the use of SAS procedures: Reg, Phreg, Nparlway and Plot (SAS institute Inc., Cary, N.C.).
# [7] = system: protein kinase C (PKC); assay: MARCKS phosphorylation by PKC in isolated GCPs; type: biochemical, rat; conditions: 30 sec @ 30° C.; 10^−6M or less free Ca^2+
# Excerpt: FIG. 7A. Thrombin stimulates MARCKS phosphorylation in a 12-LOX-dependent manner. FIG. 7B. 12(S)-HETE stimulates MARCKS phosphorylation by PKC in isolated GCPs. […] Polypeptides were resolved by SDS-PAGE. MARCKS phosphorylation was quantified by phosphorimaging.
# [8] = system: MAT-Lu cells; assay: Pseudopod morphometry (pseudopod length assay), MAT-Lu cells; type: cell-based, rat
# Method: as §2, §3
# [9] = biological target: PKC γ (Rattus norvegicus, UniProt P63319); conditions: Naor et al. 1988; cited from earlier work
# [10] = system: MAT-Lu cells; assay: Boyden chamber motility assay, MAT-Lu cells; type: cell-based, rat
# Method: Boyden Chamber Motility Assays. Disposable transwells (Coming Costar, Cambridge, Mass.) of 6.5 mm diameter and 8 μm pore size were coated with 5 μg/ml laminin on both sides. The membranes were washed twice with Hank's balanced salt solution (HBSS) and then pre-incubated with growth medium containing 10% fetal bovine serum. Trypsinized cells (5×10^4) were plated into the upper well. After 1 hour the upper chamber was washed twice with HBSS, filled with serum-free medium and moved to a new lower chamber, also filled with serum-free medium, with or without thrombin and/or 0.75 nM insulin-like growth factor-1 (IGF-1). After incubation for 4 hrs, cells on the membrane were fixed and stained with a Diff-Quick kit (Baxter Scientific Products). Cells on the upper side were scraped off, the membranes were removed, mounted onto microscope slides and analyzed. Each filter was scanned twice at right angles under the light microscope with a 16×phase contrast objective lens. A continuous series of 20 frames for each filter was digitized using a high-resolution CCD camera (Kodak) and stored in a Power Macintosh computer. The two most peripheral pairs of frames from each scan were deleted so that 12 frames were analyzed for each filter. Cells that had crossed the membrane were counted and tabulated. The sum of the cells counted in the twelve frames was an individual data point.
# [11] = system: growth cone PLC; assay: Phospholipase C assay (DG release) in GCPs; type: biochemical, rat; conditions: IGF-1, low nanomolar range; 10 μM free Ca^2+
# Excerpt: as §1
compound,measurement,setting,value
"O[C@H](CS)[C@H](O)CS (racemic) [DTT, dithiothreitol]","net activity (pmol/min/mg protein), 50 nM DTT","[1]; Table 3b, GCPs, substrate PI, thrombin 100 nM or control",66.0 ± 4.7 pmol/min/mg protein
same,effect of reducing agent on measured PLA2 activity,[2],did not significantly inhibit the measured PLA2 activity
"CCCCC/C=C\C[C@H](O)/C=C/C=C\C/C=C\CCCC(=O)O [12(S)-HETE, 12(S)-hydroxyeicosatetraenoic acid]",concentration at peak of pseudopod retraction,[3]; 15-min incubation,10^−11 to 10^−10 M
same,Kd,[4],1 nM
same,time required for saturation,[4],90 to 120 min
same,"growth cone collapse, agent alone",[5],mimics the effects of thrombin and TRAP; also recorded: does indeed cause growth cone collapse
same,effect on AT-2 pseudopod length,[6]; 10^−11M,seems to increase pseudopod length
same,pseudopod retraction response of AT-2 cells,[6],retraction was not observed
same,concentration at peak of MARCKS and GAP43 phosphorylation (biphasic),[7],about 10^−10 M
same,time until pseudopod shortening nearly complete for most cells,[8]; 10^−10M by medium replacement,about 15 min
same,time at which pseudopod lengths reach a minimum,"[8]; 10^−10 M by medium replacement, 73 pseudopods",about 17 min
same,length reduction for the median pseudopod length versus control,"[8]; at 10^−11 and 10^−10 M, 15 min, p<0.0001",> 45%
same,time until pseudopod absorbed completely into the cell,"[8]; local application, 10^−10M",about 15 min
same,onset of pseudopod detachment and shortening,"[8]; local application, 10^−10M, about 10 μm from cell process",≤ 1 min
"CCCCC/C=C\C/C=C\C/C=C\C/C=C\CCCC(=O)O [AA, arachidonic acid]",pseudopod response to AA,[3]; all three high-motility cell types,responded to AA in the manner described for MAT-Lu cells
same,concentration at peak of biphasic PKC γ response,[9],12 µM
same,pseudopod retraction response of AT-2 cells,[6],almost completely insensitive
same,effect of agent alone on pseudopod length,[8]; typically 15 min exposure,caused significant but reversible reduction of pseudopod length; also recorded: mimics the thrombin-induced length reduction; also recorded: causes statistically significant pseudopod shortening
"IGF-1: insulin-like growth factor-1, positive chemotactic factor",Mat-Lu cells crossing filter in % of control +/− SEM,"[10]; IGF-1 (0.75 nM), 4 hr, thrombin 200 nM, CDC 126 nM",184 +/− 15 % of control
same,enhancement of MAT-Lu migration across laminin-coated membrane,"[10]; IGF-1 in the lower chamber, 4 hr",about 1.8 fold
same,increase in MAT-Lu migration,[10]; four-hour assays,about 80%
same,stimulation of DG release in GCPs,[11],approximately two-fold
same,stimulation of AA release from PI,"[1]; IGF-1, low nanomolar range, 10 μM free Ca^2+",about 1.7 fold
same,net activity (pmol/min/mg protein),"[1]; Table 3c, GCPs, substrate PI, BDNF 100, IGF-1 0.75, insulin 1, thrombin 200 nM, control 159 ± 6.2",177 ± 14.5 pmol/min/mg protein
